# Laboratory results taken from ChEMBL document CHEMBL5120947, “General Pharmacological Activation Mechanism of K+ Channels Bypassing Channel Gates” (J Med Chem, 2022).
# Calls of active or inactive are those of the source. The calls are words filed in the database; no cut-off is given here.
# How the values were obtained:
# [1] = biological target: Potassium voltage-gated channel subfamily KQT member 2 (Homo sapiens) (UniProt O43526); assay: Agonist activity at human KCNQ2 expressed in CHO cells assessed as increase in outward current at 10 uM at 50 mV by patch clamp electrophysiology method; type: cell-based; details: filed as agonist
# Potassium voltage-gated channel subfamily KQT member 2 (Homo sapiens), sequence (O43526 whole entry): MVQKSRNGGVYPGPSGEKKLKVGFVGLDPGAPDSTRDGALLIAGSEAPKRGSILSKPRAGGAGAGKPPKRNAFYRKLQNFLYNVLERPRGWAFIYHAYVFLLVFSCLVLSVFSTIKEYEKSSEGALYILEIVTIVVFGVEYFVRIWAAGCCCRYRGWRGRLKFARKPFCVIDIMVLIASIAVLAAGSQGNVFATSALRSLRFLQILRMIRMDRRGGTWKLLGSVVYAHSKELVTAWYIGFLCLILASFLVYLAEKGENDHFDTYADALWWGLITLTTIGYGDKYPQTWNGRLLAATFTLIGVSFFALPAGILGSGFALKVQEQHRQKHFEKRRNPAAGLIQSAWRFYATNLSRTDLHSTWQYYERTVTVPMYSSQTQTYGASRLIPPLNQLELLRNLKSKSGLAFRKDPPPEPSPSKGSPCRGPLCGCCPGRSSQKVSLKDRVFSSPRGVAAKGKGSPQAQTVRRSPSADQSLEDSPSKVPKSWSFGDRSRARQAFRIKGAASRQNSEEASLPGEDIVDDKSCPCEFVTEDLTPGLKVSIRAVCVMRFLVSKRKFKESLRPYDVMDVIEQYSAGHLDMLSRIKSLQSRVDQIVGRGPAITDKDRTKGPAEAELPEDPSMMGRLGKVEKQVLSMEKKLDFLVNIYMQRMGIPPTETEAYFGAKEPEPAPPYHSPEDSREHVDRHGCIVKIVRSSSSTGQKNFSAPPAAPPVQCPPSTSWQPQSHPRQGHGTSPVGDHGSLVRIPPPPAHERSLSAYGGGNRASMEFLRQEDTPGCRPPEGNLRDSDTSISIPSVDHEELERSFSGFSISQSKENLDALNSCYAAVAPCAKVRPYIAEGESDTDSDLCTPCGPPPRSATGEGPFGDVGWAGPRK
# [2] = biological target: T1, Potassium channel subfamily K member 2 (Homo sapiens) (UniProt O95069); assay: Activation of human TREK-1 expressed in CHO cells at 10 uM in presence of ML335 by patch clamp electrophysiology method; type: cell-based; details: filed as activator
# T1 sequence (whole entry): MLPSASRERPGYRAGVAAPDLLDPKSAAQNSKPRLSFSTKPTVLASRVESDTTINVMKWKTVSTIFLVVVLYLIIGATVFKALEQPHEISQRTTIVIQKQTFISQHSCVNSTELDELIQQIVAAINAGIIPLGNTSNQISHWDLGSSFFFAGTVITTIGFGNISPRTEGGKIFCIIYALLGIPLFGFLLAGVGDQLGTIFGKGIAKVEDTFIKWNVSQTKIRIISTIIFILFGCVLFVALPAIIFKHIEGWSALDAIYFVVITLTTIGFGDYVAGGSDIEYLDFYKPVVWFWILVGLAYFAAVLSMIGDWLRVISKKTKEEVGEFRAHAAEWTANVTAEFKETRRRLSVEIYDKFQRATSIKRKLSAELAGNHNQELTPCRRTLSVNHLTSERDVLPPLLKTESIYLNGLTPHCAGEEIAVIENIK
# [3] = Lipophilicity, logD of the compound; type: physicochemical; details: octanol/water
# [4] = biological target: Potassium voltage-gated channel subfamily KQT member 5 (Homo sapiens, UniProt Q9NR82); assay: Agonist activity at human KCNQ5 channel expressed in CHO cells assessed as increase in outward current by patch clamp electrophysiology method; type: cell-based
# Potassium voltage-gated channel subfamily KQT member 5, sequence (Q9NR82 whole entry): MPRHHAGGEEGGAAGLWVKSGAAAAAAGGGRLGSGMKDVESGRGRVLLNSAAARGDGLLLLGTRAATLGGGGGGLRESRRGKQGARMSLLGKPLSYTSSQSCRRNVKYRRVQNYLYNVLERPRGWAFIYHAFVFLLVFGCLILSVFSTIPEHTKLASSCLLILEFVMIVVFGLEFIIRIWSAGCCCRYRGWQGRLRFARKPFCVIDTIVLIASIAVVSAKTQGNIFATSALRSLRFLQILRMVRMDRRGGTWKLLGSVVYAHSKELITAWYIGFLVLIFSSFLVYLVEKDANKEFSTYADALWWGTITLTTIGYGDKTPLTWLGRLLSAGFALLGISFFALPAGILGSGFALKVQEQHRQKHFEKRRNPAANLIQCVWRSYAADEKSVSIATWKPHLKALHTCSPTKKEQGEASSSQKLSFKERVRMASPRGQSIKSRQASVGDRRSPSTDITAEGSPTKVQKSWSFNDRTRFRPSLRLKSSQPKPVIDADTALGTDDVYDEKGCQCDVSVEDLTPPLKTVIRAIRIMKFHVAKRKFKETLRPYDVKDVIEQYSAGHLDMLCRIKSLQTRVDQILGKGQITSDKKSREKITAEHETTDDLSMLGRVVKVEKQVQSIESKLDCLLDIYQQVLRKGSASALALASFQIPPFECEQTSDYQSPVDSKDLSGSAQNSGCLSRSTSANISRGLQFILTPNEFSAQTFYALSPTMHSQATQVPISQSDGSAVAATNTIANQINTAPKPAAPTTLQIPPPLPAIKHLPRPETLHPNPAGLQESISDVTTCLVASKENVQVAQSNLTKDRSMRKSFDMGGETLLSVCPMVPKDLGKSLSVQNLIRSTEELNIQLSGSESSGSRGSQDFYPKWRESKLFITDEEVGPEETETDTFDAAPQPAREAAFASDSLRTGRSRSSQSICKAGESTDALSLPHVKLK
# [5] = biological target: T2, Potassium voltage-gated channel subfamily KQT member 4 (Homo sapiens, UniProt P56696); assay: Agonist activity at human KCNQ4 channel expressed in CHO cells assessed as increase in outward current by patch clamp electrophysiology method; type: cell-based
# T2 sequence (P56696 whole entry): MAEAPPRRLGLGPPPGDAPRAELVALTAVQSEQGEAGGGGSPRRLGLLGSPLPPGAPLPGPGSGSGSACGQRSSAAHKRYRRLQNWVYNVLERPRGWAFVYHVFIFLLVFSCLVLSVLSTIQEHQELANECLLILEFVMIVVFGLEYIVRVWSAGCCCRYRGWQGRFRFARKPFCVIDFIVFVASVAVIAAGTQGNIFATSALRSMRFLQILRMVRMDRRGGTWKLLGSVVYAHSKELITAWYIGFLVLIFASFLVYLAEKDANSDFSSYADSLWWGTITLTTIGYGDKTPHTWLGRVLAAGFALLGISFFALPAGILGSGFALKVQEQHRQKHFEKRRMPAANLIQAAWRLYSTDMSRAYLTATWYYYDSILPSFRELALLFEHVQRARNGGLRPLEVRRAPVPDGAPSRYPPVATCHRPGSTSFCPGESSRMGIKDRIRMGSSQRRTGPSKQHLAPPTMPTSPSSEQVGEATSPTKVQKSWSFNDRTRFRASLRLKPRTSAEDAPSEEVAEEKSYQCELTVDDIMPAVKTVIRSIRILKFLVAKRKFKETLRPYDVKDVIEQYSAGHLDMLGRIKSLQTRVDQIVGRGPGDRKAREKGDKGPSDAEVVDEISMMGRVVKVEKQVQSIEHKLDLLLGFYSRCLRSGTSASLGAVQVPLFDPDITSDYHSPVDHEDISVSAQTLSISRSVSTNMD
SMILES,Activity [2],logD [3],further results
O=C(Nc1ccc(Cl)nc1)c1ccc(F)cc1,–,–,Activity [1]: Active
c1ccc(-c2nnn[nH]2)c(Nc2cccc3c2CCCC3)c1,Active,–,–
Cc1ccc(CSCc2nnc(SCC(=O)Nc3ccc(Br)cc3F)n2C)cc1,–,4.38,–
O=C(O)c1ccccc1Nc1ccc(CCc2ccc(Cl)c(Cl)c2)cc1,Active,–,–

# Second part, led by results:
Activity [2],logD [3],SMILES,further results
–,4.66,Cc1ccc(CSCc2nnc(SCC(=O)Nc3ccc(Br)cc3I)n2C)cc1,–
–,4.79,Cc1ccc(CSCc2nnc(SCC(=O)Nc3ccc(Br)cc3Br)n2C)cc1,EC50 [4]: 4.5 µM; EC50 [5]: 6.4 µM
